Experimental data: PubChem BioAssay (NCI)
Values joined by “and” are separate entries in the source; they are usually repeats but may differ in a detail not shown here. Identical values can stand only once.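 Protocol summary: plate cells (96-well), add compound at 5 concentrations, incubate 48 h, interpolate endpoints linearly. The concentration for 50% growth inhibition is given as GI50. Definition used: TGI = concentration required for complete inhibition of growth.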

Tests used:
Test in all cases: growth of human tumour cells (NCI), 48 h
BT-549 breast = system: BT-549 breast
HOP-92 NSCLC = system: HOP-92 NSCLC
HT29 colon = system: HT29 colon
K-562 leukemia = system: K-562 leukemia
OVCAR-4 ovarian = system: OVCAR-4 ovarian
OVCAR-8 ovarian = system: OVCAR-8 ovarian
SF-295 CNS = system: SF-295 CNS
SK-MEL-5 melanoma = system: SK-MEL-5 melanoma
SNB-19 CNS = system: SNB-19 CNS
SR leukemia = system: SR leukemia
SW-620 colon = system: SW-620 colon
UO-31 renal = system: UO-31 renal
SF-539 CNS = system: SF-539 CNS
COLO 205 colon = system: COLO 205 colon

Row | SMILES | TGI (BT-549 breast) [µM] | TGI (HOP-92 NSCLC) [µM] | TGI (HT29 colon) [µM] | TGI (K-562 leukemia) [µM] | TGI (OVCAR-4 ovarian) [µM] | TGI (OVCAR-8 ovarian) [µM] | TGI (SF-295 CNS) [µM] | TGI (SK-MEL-5 melanoma) | TGI (SNB-19 CNS) [µM] | TGI (SR leukemia) [µM] | TGI (SW-620 colon) [µM] | TGI (UO-31 renal) [µM] | TGI (SF-539 CNS) [µM] | TGI (COLO 205 colon) [µM] | GI50 (K-562 leukemia) | GI50 (SK-MEL-5 melanoma)
1 | O=[N+]([O-])c1ccc(Nc2nc3ccccc3s2)cc1 | 81.4 | 60.9 | > 100 | 35 | > 100 | > 100 | > 100 | 56.7 µM | > 100 | 34.5 | > 100 | 66.5 | – | – | – | –
2 | Cc1nn(-c2ccccc2)c2[nH]c(=S)cnc12 | > 100 | > 100 | > 100 | > 100 | > 100 | > 100 | > 100 | – | > 100 | > 100 | > 100 | > 100 | > 100 | – | – | –
3 | O=C(CCc1ccc(O)cc1)NCCc1cccc(OCc2ccccc2)c1 | 45.6 | 70.9 | 38.4 | 65.9 | > 100 | > 100 | > 100 | 32.7 µM | > 100 | 36.5 | – | 53.9 | 31 | > 100 | – | –
4 | COc1cc(C2=C(C#N)C(N)OC3=C2COc2ccccc23)cc(OC)c1OC (centres undefined) | > 100 | > 100 | > 100 | > 100 | 45.7 | – | – | > 100 µM | 30.6 | > 100 | > 100 | 12.7 | 50.5 | > 100 | – | –
5 | CCCCCC(CO)C(O)(C(F)(F)F)C(F)(F)F (centres undefined) | > 10 | > 10 | > 10 | > 10 | > 10 | > 10 | > 10 | > 10 µM | > 10 | > 10 | > 10 | – | > 10 | > 10 | – | –
6 | O=c1cc(CBr)c2ccc(O)cc2o1 | 77 | – | > 100 | > 100 | – | > 100 | > 100 | > 100 µM | > 100 | > 100 | > 100 | > 100 | > 100 | > 100 | – | –
7 | CCOC(=O)c1c(-c2ccc(O)c(OC)c2)c(C#N)c(=S)n(C2OC(COC(C)=O)C(OC(C)=O)C(OC(C)=O)C2OC(C)=O)c1-c1ccccc1 (centres undefined) | > 100 | > 100 | > 100 | > 100 | > 100 | – | > 100 | 65.6 µM and > 100 µM | > 100 | > 100 | > 100 | > 100 | – | > 100 | 49.1 µM and > 100 µM | 21.9 µM and 47.2 µM
8 | NC(CCP(=O)(O)CCC1C=CC=CC1)C(=O)O (centres undefined) | > 100 | > 100 | > 100 | > 100 | > 100 | > 100 | > 100 | > 100 µM | > 100 | > 100 | > 100 | > 100 | > 100 | > 100 | – | –
9 | CN(C)CCCCN1c2ccccc2Sc2cc(N=[N+]=[N-])ccc21 | 22.9 | 10.5 | 2.9 | – | 6.35 | 3.38 | 4.05 | 3.18 µM | 19.9 | > 100 | 3.56 | 3.66 | 3.4 | 3.09 | – | –
10 | O=c1c2cc([N+](=O)[O-])ccc2n2n1Cc1ccccc1C2 | > 100 | > 100 | > 100 | > 100 | > 100 | > 100 | > 100 | > 100 µM | > 100 | > 100 | > 100 | > 100 | > 100 | > 100 | – | –
11 | CN(C(=O)Cc1ccc(Cl)c(Cl)c1)[C@@H]1CCCC[C@H]1[N+]1(C)CC=CC1 | > 100 | > 100 | > 100 | > 100 | > 100 | > 100 | > 100 | > 100 µM | > 100 | > 100 | > 100 | > 100 | – | > 100 | – | –
12 | CC(=O)NC1C(O)C(O)C(CO)OC1n1ncc(=O)[nH]c1=O (centres undefined) | > 100 | > 100 | > 100 | > 100 | > 100 | > 100 | > 100 | > 100 µM | > 100 | > 100 | > 100 | > 100 | > 100 | > 100 | – | –
13 | CCCCCCCCC/C=C1\CC(CO)(COC(=O)C2CCCCC2)OC1=O (centres undefined) | 36.2 | 22.2 | 42 | > 100 | 49.3 | 29.2 | 34.1 | 27.3 µM | 40.9 | > 100 | 33.1 | 55.8 | – | 30.9 | – | –
14 | CCOP(=O)(OCC)c1ccc(=O)[nH]c1-c1cccs1 | > 100 | > 100 | > 100 | > 100 | > 100 | > 100 | > 100 | > 100 µM | > 100 | > 100 | > 100 | > 100 | > 100 | > 100 | – | –
15 | COc1cccc2c(Nc3ccc(S(=O)(=O)NC(C)=O)cc3)c3ccc([N+](=O)[O-])cc3nc12 | > 56 | > 100 | 28.5 | > 84.7 | > 100 | > 100 | > 100 | > 78.3 µM | > 100 | 34.3 | > 79.8 | > 100 | > 100 | > 95.7 | – | –
16 | O=C(O)c1ccc(Nc2nc3ccccc3nc2-c2cccs2)cc1 | > 100 | > 100 | > 100 | > 100 | > 100 | > 100 | > 100 | > 100 µM | – | > 100 | > 100 | > 100 | > 100 | > 100 | – | –
17 | O=C1c2ccccc2C2=Nc3ccncc3CN12 | > 100 | > 100 | > 100 | > 100 | > 100 | > 100 | > 100 | > 100 µM | > 100 | > 100 | > 100 | > 100 | > 100 | > 100 | – | –
